Measurements as given in patent US20060205673A1, “2-Amino-3-hydroxy-4-tert-leucyl-amino-5-phenyl-pentanoic acid amide derivatives” (priority 2000, published 2006).
pIC50: −log10 of the molar value.

Target: T1, purified human placenta 20S proteasome (Homo sapiens, UniProt P28074)
T1 construct: 1 μl purified human placenta 20S proteasome; tissue Diabetes Forschungsinstitut, Düsseldorf, Germany; host or cells: human placenta
Experiment: Inhibition of the chymotrypsin-like activity of the 20S proteasome (Suc-LLVY-AMC hydrolysis)
Assay type: biochemical
Details: Suc-LLVY-AMC substrate, 60 min preincubation at room temperature, Table 1
Description: It is based on the hydrolysis of the fluorogenic peptide Suc-LLVY-AMC (Succinyl-leucine-leucine-valine-tyrosine-7-amino-4-methyl-coumarin), which is cleaved exclusively at the Y-AMC bond by the 20S proteasome. Hydrolysis of this peptide is accompanied by an increase in fluorescence intensity [λex (excitation wavelength): 355 nm; λem (emission wavelength): 460 nm] due to release of the internally quenched […] fluorescence that accompanies diffusion apart of the hydrolysis product Suc-LLVY.
2 μl of a 1 mM solution of a test compound in DMSO (dimethylsulfoxide, 20 μM final concentration in the well) are preincubated for 60 min at room temperature in black 96-well microtiter plates together with a mixture of 1 μl purified human placenta 20S proteasome (Diabetes Forschungsinstitut, Düsseldorf, Germany; about 100 ng proteasome, depending on the proteasome preparation) and 47 μl buffer-Ca [5 mM CaCl2, 20 mM Tris/HCl (Tris-(hydroxymethyl)-amino-methane hydrochloride) pH 8.0]. 3 μl of a 2.67 mM solution of Suc-LLVY-AMC (Bachem, Switzerland) in DMSO (80 μM final concentration in the well) and 47 μl buffer-Ca are mixed and added. The resulting mixture is incubated for 3-24 h at 37° C. If desired, proteolysis of the substrate can be stopped by addition of 50 μl stop solution (100 mM monochloroacetic acid, 130 mM NaOH, 100 mM acetic acid, pH=4.3). The fluorescence is monitored with a FLUOROSKAN ASCENT™ microtiter plate reader.
To each measure series two control experiments have to be carried out:
1.) 0% value: 2 μl DMSO are used in the above described assay instead of 2 μl of a 1 mM solution of a test compound in DMSO and 48 μl buffer-Ca instead of a mixture of 47 μl buffer-Ca and 1 μl purified proteasome.
2.) 100% value: in the above described assay 2 μl DMSO are used instead of 2 μl of a 1 mM solution of the test compound in DMSO.
The IC50 value is defined as that concentration of a compound at which the remaining activity is 50%.

COc1ccc(CNC(=O)[C@@H](NC(=O)[C@H](NCc2cccc3ccccc23)[C@H](O)[C@H](Cc2ccccc2)NC(=O)[C@@H](NC(=O)OCc2ccccc2)C(C)(C)C)C(C)C)c(O)c1 [Example 1, ((S)-1-{(1S,2R,3R)-1-Benzyl-2-hydroxy-3-[(S)-1-(2-hydroxy-4-methoxy-benzylcarbamoyl)-2-methyl-propylcarbamoyl]-3-[(naphthalen-1-ylmethyl)-amino]-propylcarbamoyl}-2,2-dimethyl-propyl)-carbamic acid benzyl ester]
pIC50: 6.59

COc1ccc(CNC(=O)[C@@H](NC(=O)[C@H](NCc2ccc(N(C)C)cc2)[C@H](O)[C@H](Cc2ccccc2)NC(=O)[C@@H](NC(=O)OCc2ccccc2)C(C)(C)C)C(C)C)c(O)c1 [Example 2, ((S)-1-{(1S,2R,3R)-1-Benzyl-3-(4-dimethylamino-benzylamino)-2-hydroxy-3-[(S)-1-(2-hydroxy-4-methoxy-benzylcarbamoyl)-2-methyl-propylcarbamoyl]-propylcarbamoyl}-2,2-dimethyl-propyl)-carbamic acid benzyl ester]
pIC50: 6.22

COc1ccc(CN[C@@H](C(=O)N[C@H](C(=O)NCc2cc(Br)ccc2O)C(C)C)[C@H](O)[C@H](Cc2ccccc2)NC(=O)[C@@H](NC(=O)OCc2ccccc2)C(C)(C)C)cc1 [Example 3, {(S)-1-[(1S,2R,3R)-1-Benzyl-3-[(S)-1-(5-bromo-2-hydroxy-benzyl-carbamoyl)-2-methyl-propylcarbamoyl]-2-hydroxy-3-(4-methoxy-benzylamino)-propylcarbamoyl]-2,2-dimethyl-propyl}-carbamic acid benzyl ester]
pIC50: 6.10

COc1cccc(CN[C@@H](C(=O)N[C@H](C(=O)NCc2ccc(OC)cc2O)C(C)C)[C@H](O)[C@H](Cc2ccccc2)NC(=O)[C@@H](NC(=O)OCc2ccccc2)C(C)(C)C)c1 [Example 4, {(S)-1-[(1S,2R,3R)-1-Benzyl-2-hydroxy-3-[(S)-1-(2-hydroxy-4-methoxy-benzylcarbamoyl)-2-methyl-propylcarbamoyl]-3-(3-methoxy-benzylamino)-propylcarbamoyl]-2,2-dimethyl-propyl}-carbamic acid benzyl ester]
pIC50: 5.82

COc1ccc(CNC(=O)[C@@H](NC(=O)[C@H](NCc2ccc(OC)cc2OC)[C@H](O)[C@H](Cc2ccccc2)NC(=O)[C@@H](NC(=O)OCc2ccccc2)C(C)(C)C)C(C)C)c(O)c1 [Example 5, ((S)-1-{(1S,2R,3R)-1-Benzyl-3-(2,4-dimethoxy-benzylamino)-2-hydroxy-3-[(S)-1-(2-hydroxy-4-methoxy-benzylcarbamoyl)-2-methyl-propylcarbamoyl]-propylcarbamoyl}-2,2-dimethyl-propyl)-carbamic acid benzyl ester]
pIC50: 5.80

COc1ccc(CNC(=O)[C@@H](NC(=O)[C@H](NCc2cc(OC)c(OC)c(OC)c2)[C@H](O)[C@H](Cc2ccccc2)NC(=O)[C@@H](NC(=O)OCc2ccccc2)C(C)(C)C)C(C)C)c(O)c1 [Example 6, {(S)-1-[(1S,2R,3R)-1-Benzyl-2-hydroxy-3-[(S)-1-(2-hydroxy-4-methoxy-benzylcarbamoyl)-2-methyl-propylcarbamoyl]-3-(3,4,5-trimethoxy-benzylamino)-propylcarbamoyl]-2,2-dimethyl-propyl}-carbamic acid benzyl ester]
pIC50: 7.30

COc1ccc(CNC(=O)[C@@H](NC(=O)[C@H](NCc2ccc(OC)c(OC)c2OC)[C@H](O)[C@H](Cc2ccccc2)NC(=O)[C@@H](NC(=O)OCc2ccccc2)C(C)(C)C)C(C)C)c(O)c1 [Example 7, {(S)-1-[(1S,2R,3R)-1-Benzyl-2-hydroxy-3-[(S)-1-(2-hydroxy-4-methoxy-benzylcarbamoyl)-2-methyl-propylcarbamoyl]-3-(2,3,4-trimethoxy-benzylamino) -propylcarbamoyl]-2,2-dimethyl-propyl}-carbamic acid benzyl ester]
pIC50: 7.00

COc1ccc(CNC(=O)[C@@H](NC(=O)[C@H](NCc2ccc(OC)c(OC)c2)[C@H](O)[C@H](Cc2ccccc2)NC(=O)[C@@H](NC(=O)OCc2ccccc2)C(C)(C)C)C(C)C)c(O)c1 [Example 8, ((S)-1-{(1S,2R,3R)-1-Benzyl-3-(3,4-dimethoxy-benzylamino)-2-hydroxy-3-[(S)-1-(2-hydroxy-4-methoxy-benzylcarbamoyl)-2-methyl-propylcarbamoyl]-propylcarbamoyl}-2,2-dimethyl-propyl)-carbamic acid benzyl ester]
pIC50: 6.82

COc1cc(CN[C@@H](C(=O)N[C@H](C(=O)NCc2ccc(OC)cc2O)C(C)C)[C@H](O)[C@H](Cc2ccccc2)NC(=O)[C@@H](NC(=O)OCc2ccccc2)C(C)(C)C)cc(OC)c1 [Example 9, ((S)-1-{(1S,2R,3R)-1-Benzyl-3-(3,5-dimethoxy-benzylamino)-2-hydroxy-3[(S)-1-(2-hydroxy-4-methoxy-benzylcarbamoyl)-2-methyl-propylcarbamoyl]-propylcarbamoyl}-2,2-dimethyl-propyl)-carbamic acid benzyl ester]
pIC50: 6.72

COc1ccc(CNC(=O)[C@@H](NC(=O)[C@H](NCc2cc(OC)c(OC)cc2OC)[C@H](O)[C@H](Cc2ccccc2)NC(=O)[C@@H](NC(=O)OCc2ccccc2)C(C)(C)C)C(C)C)c(O)c1 [Example 10, {(S)-1-[(1S,2R,3R)-1-Benzyl-2-hydroxy-3-[(S)-1-(2-hydroxy-4-methoxy-benzylcarbamoyl)-2-methyl-propylcarbamoyl]-3-(2,4,5-trimethoxy-benzylamino)-propylcarbamoyl]-2,2-dimethyl-propyl}-carbamic acid benzyl ester]
pIC50: 6.70

COc1ccc(CNC(=O)[C@@H](NC(=O)[C@H](NCc2cc(OC)c(OC)c(OC)c2)[C@H](O)[C@H](Cc2ccccc2)NC(=O)[C@@H](NC(=O)OC(C)(C)C)C(C)(C)C)C(C)C)c(O)c1 [Example 11, {(S)-1-[(1S,2R,3R)-1-Benzyl-2-hydroxy-3-[(S)-1-(2-hydroxy-4-methoxy-benzylcarbamoyl)-2-methyl-propylcarbamoyl]-3-(3,4,5-trimethoxy-benzylamino)-propylcarbamoyl]-2,2-dimethyl-propyl}-carbamic acid tert-butyl ester]
pIC50: 5.98

COc1ccc(CNC(=O)[C@@H](NC(=O)[C@H](NCc2cc(OC)c(OC)c(OC)c2)[C@H](O)[C@H](Cc2ccccc2)NC(=O)[C@@H](NC(=O)Cc2cccc3ccccc23)C(C)(C)C)C(C)C)c(O)c1 [Example 12, (2R,3R,4S)-4-[(S)-3,3-Dimethyl-2-(2-naphthalen-1-yl-acetylamino)-butyrylamino]-3-hydroxy-5-phenyl-2-(3,4,5-trimethoxy-benzylamino)-pentanoic acid [(S)-1-(2-hydroxy-4-methoxy-benzylcarbamoyl)-2-methyl-propyl]-amide]
pIC50: 7.96

COc1ccc(CNC(=O)[C@@H](NC(=O)[C@H](NCc2ccc(OC)c(OC)c2OC)[C@H](O)[C@H](Cc2ccccc2)NC(=O)[C@@H](NC(=O)Cc2cccc3ccccc23)C(C)(C)C)C(C)C)c(O)c1 [Example 13, (2R,3R,4S)-4-[(S)-3,3-Dimethyl-2-(2-naphthalen-1-yl-acetylamino)-butyrylamino]-3-hydroxy-5-phenyl-2-(2,3,4-trimethoxy-benzylamino)-pentanoic acid [(S)-1-(2-hydroxy-4-methoxy-benzylcarbamoyl)-2-methyl-propyl]-amide]
pIC50: 7.74

COc1ccc(CNC(=O)[C@@H](NC(=O)[C@H](NCc2cc(OC)c(OC)cc2OC)[C@H](O)[C@H](Cc2ccccc2)NC(=O)[C@@H](NC(=O)Cc2cccc3ccccc23)C(C)(C)C)C(C)C)c(O)c1 [Example 14, (2R,3R,4S)-4-[(S)-3,3-Dimethyl-2-(2-naphthalen-1-yl-acetylamino)-butyrylamino]-3-hydroxy-5-phenyl-2-(2,4,5-trimethoxy-benzylamino)-pentanoic acid [(S)-1-(2-hydroxy-4-methoxy-benzylcarbamoyl)-2-methyl-propyl]-amide]
pIC50: 7.54

COc1ccc(CNC(=O)[C@@H](NC(=O)[C@H](NCc2cccc3ccccc23)[C@H](O)[C@H](Cc2ccccc2)NC(=O)[C@@H](NC(=O)Cc2cccc3ccccc23)C(C)(C)C)C(C)C)c(O)c1 [Example 15, (2R,3R,4S)-4-[(S)-3,3-Dimethyl-2-(2-naphthalen-1-yl-acetylamino)-butyrylamino]-3-hydroxy-2-[(naphthalen-1-ylmethyl)-amino]-5-phenyl-pentanoic acid [(S)-1-(2-hydroxy-4-methoxy-benzylcarbamoyl)-2-methyl-propyl]-amide]
pIC50: 6.82
